Where a SMILES comes first, the peptide text is derived from it. Where no end group is shown, it is not given here.

The results in this text go back to article PMC4338079, “N-Terminus Three Residues Deletion Mutant of Human Beta-Defensin 3 with Remarkably Enhanced Salt-Resistance” (PLoS ONE, 2015).

Data set [1] relates to K. pneumonia ATCC 700603. It counts as cell-based, Klebsiella pneumonia. Particulars: 10^5-10^6 CFU/ml in PBS pH 7.2, 3 h at 37°C, colony count, mean ± SD of three. An excerpt:
(§1) Ten strains obtained from the American Type Culture Collection (ATCC) and China Center of Industrial Culture Collection (CICC) were used for antibacterial and salt resistance assays. The Gram-positive strains were Staphyloccocus aureus ATCC 29213, Enterococcus faecalis ATCC 29212, Staphylococcus epidermidis ATCC 12228, Enterococcus faecium ATCC 6057, and Enterococcus faecium ATCC 19434. The Gram-negative strains were Escherichia coli ATCC 25922, Pseudomonas aeruginosa ATCC 15442, Klebsiella pneumonia ATCC 700603, Shigella flexneri CICC 21534, and Shigella sonnei CICC 21535. Fifteen E. coli clinical isolates were collected from 302 Military Hospital of China. The Gram-positive and Gram-negative strains were grown in Luria—Bertani (LB) and Mueller—Hinton (MH) media at 37°C, respectively.
(§2) The antibacterial activities of these peptides were determined in a modified microdilution assay as described previously. […] The five concentrations of the peptides were added to 200 μl of the bacterial suspension and then incubated at 37°C for 3 h before CFU numbers were determined. […] The cells were serially diluted in the same buffer, plated on Luria broth plates, and then incubated for 18 h at 37°C before the resulting colonies were counted. The bactericidal activity was expressed as the ratio of colonies counted to the number of colonies on a control plate. […]

For data set [2], the system named is S. aureus ATCC 29213. It counts as cell-based, Staphyloccocus aureus. Particulars: 10^5-10^6 CFU/ml in PBS pH 7.2, 3 h at 37°C, colony count, mean ± SD of three.
Excerpt: as §1, §2

In data set [3] the test system is E. faecalis ATCC 29212. It counts as cell-based, Enterococcus faecalis. To be noted: 10^5-10^6 CFU/ml in PBS pH 7.2, 3 h at 37°C, colony count, mean ± SD of three.
Excerpt: as §1, §2

Data set [4] has as its system S. epidermidis ATCC 12228. The format is cell-based, Staphylococcus epidermidis. Particulars: 10^5-10^6 CFU/ml in PBS pH 7.2, 3 h at 37°C, colony count, mean ± SD of three.
Excerpt: as §1, §2

The test system of data set [5] is E. faecium ATCC 19434. The format is cell-based, Enterococcus faecium. Particulars: 10^5-10^6 CFU/ml in PBS pH 7.2, 3 h at 37°C, colony count, mean ± SD of three.
Excerpt: as §1, §2

The test system of data set [6] is E. faecium ATCC 6057. It counts as cell-based, Enterococcus faecium. To be noted: 10^5-10^6 CFU/ml in PBS pH 7.2, 3 h at 37°C, colony count, mean ± SD of three.
Excerpt: as §1, §2

The subject of data set [7] is E. coli ATCC 25922. It counts as cell-based, Escherichia coli. To be noted: 10^5-10^6 CFU/ml in PBS pH 7.2, 3 h at 37°C, colony count, mean ± SD of three.
Excerpt: as §1, §2

Data set [8] relates to P. Aeruginosa ATCC 15442. It counts as cell-based, Pseudomonas aeruginosa. Particulars: 10^5-10^6 CFU/ml in PBS pH 7.2, 3 h at 37°C, colony count, mean ± SD of three.
Excerpt: as §1, §2

Data set [9] relates to S. flexneri CICC 21534. The format is cell-based, Shigella flexneri. To be noted: 10^5-10^6 CFU/ml in PBS pH 7.2, 3 h at 37°C, colony count, mean ± SD of three.
Excerpt: as §1, §2

Data set [10] deals with S. sonnei CICC 21535. The format is cell-based, Shigella sonnei. Particulars: 10^5-10^6 CFU/ml in PBS pH 7.2, 3 h at 37°C, colony count, mean ± SD of three.
Excerpt: as §1, §2

The subject of data set [11] is four Gram-positive and five Gram-negative bacteria. Put plainly: Salt resistance assay, summary over the nine tested strains. It counts as cell-based. To be noted: peptide 10 μg/ml (30 μg/ml K. pneumonia). Here is the method: (§3) The antibacterial activities of these peptides were determined in a modified microdilution assay as described previously. The strains were grown under aerobic condition in MH or LB broth at 37°C and then harvested in the exponential phase of growth (OD600 ≈ 0.6. OD, optical density). After dilution, the test strains were adjusted to 10^5 to 10^6 CFU bacteria per ml in phosphate-buffered saline solution (pH 7.2). The five concentrations of the peptides were added to 200 μl of the bacterial suspension and then incubated at 37°C for 3 h before CFU numbers were determined. Phosphate buffer served as the negative control. The cells were serially diluted in the same buffer, plated on Luria broth plates, and then incubated for 18 h at 37°C before the resulting colonies were counted. The bactericidal activity was expressed as the ratio of colonies counted to the number of colonies on a control plate. The 90% lethal concentration (LD90) is the concentration of the peptide at which 90% of viable cells are killed.
(§4) For the salt resistance assay, NaCl was included in the incubation buffer (1% MH or LB) over a range of concentrations (0, 50, 100, 150, and 200 mM NaCl) potentially present in the airway surface fluid of healthy subjects and patients with cystic fibrosis. For E. coli clinical isolates, the NaCl concentrations were increased to 0, 50, 100, 150, 200, 250, and 300 mM. The peptide concentration used in the salt dependence assay was 10 μg/ml, except for the 30 μg/ml concentration used against K. pneumonia ATCC 700603. Each assay was performed in triplicate. Bactericidal activity (the mean and standard deviation of three assays) was expressed as the ratio between the number of colonies counted and the number of colonies on a control plate.

The test system of data set [12] is fifteen E. coli clinical isolates. The data set can be described thus: Salt resistance assay against clinical isolates. It counts as cell-based, Escherichia coli. To be noted: of 15 E. coli clinical isolates, peptide 10 μg/ml.
Excerpt: as §1, §3, §4

In data set [13] the test system is Vero cells. Here is the method: Vero cells suspended in Dulbecco’s modified Eagle’s medium (DMEM)-high glucose culture medium supplemented with 10% (vol/vol) fetal calf serum and 1% (vol/vol) penicillin—streptomycin were seeded on a 96-well microtiter plate at a density of 1×10^4 cells per well. After incubation overnight at 37°C under 5% CO2 in a humidified atmosphere, the cells were washed twice with buffer (pH 7.4) containing 20 mM HEPES and 150 mM NaCl. Defensins were diluted in the same wash buffer, and 200 μl was added per well. The buffer was discarded after 2 h of incubation at 37°C under 5% CO2. Subsequently, 200 μl of DMEM and 50 μl of 3-(4,5-dimethylthiazol-2-yl)-2,5-diphenyltetrazolium bromide (MTT, 5 mg/ml) were added. DMEM (100%) and MTT were discarded, and 200 μl of DMSO was added in the plate after 6 h of incubation at 37°C under 5% CO2. The absorbance was measured at 490 nm with a microtiter plate reader.

Turning to `CC[C@H](C)[C@H](NC(=O)[C@H](CCC(N)=O)NC(=O)[C@H](CCC(=O)O)NC(=O)[C@H](CCC(=O)O)NC(=O)[C@H](CCCCN)NC(=O)[C@@H]1CCCN1C(=O)[C@H](CC(C)C)NC(=O)[C@H](CS)NC(=O)[C@H](CO)NC(=O)[C@H](CC(C)C)NC(=O)[C@@H](NC(=O)[C@H](C)NC(=O)[C@H](CS)NC(=O)[C@H](CCCNC(=N)N)NC(=O)CNC(=O)CNC(=O)[C@H](CCCNC(=N)N)NC(=O)[C@@H](NC(=O)[C@H](CCCNC(=N)N)NC(=O)[C@H](CS)NC(=O)[C@@H](N)Cc1ccc(O)cc1)C(C)C)C(C)C)C(=O)NCC(=O)N[C@@H](CCCCN)C(=O)N[C@@H](CS)C(=O)N[C@@H](CO)C(=O)N[C@H](C(=O)N[C@@H](CCCNC(=N)N)C(=O)NCC(=O)N[C@@H](CCCNC(=N)N)C(=O)N[C@@H](CCCCN)C(=O)N[C@@H](CS)C(=O)N[C@@H](CS)C(=O)N[C@@H](CCCNC(=N)N)C(=O)N[C@@H](CCCNC(=N)N)C(=O)N[C@@H](CCCCN)C(=O)N[C@@H](CCCCN)C(=O)O)[C@@H](C)O` [hBD-3Δ10] (H-YCRVRGGRCAVLSCLPKEEQIGKCSTRGRKCCRRKK-OH; N-terminus and C-terminus assumed), in data set [1], the “LD90 (Mean ± SD)” value is “more than 100 μg/ml”.

On to “GIINTLQKYYCRVRGGRCAVLSCLPKEEQIGKCSTRGRKCCRRKK (cysteines drawn unpaired) [hBD-3, human beta-defensin 3]”, for which the “LD90 (Mean ± SD)” value in data set [2] was 4.0 ± 0.8 µg/mL; in data set [3], 2.4 ± 1.0 µg/mL; in data set [4], 3.5 ± 1.2 µg/mL; in [5], 2.3 ± 0.5 µg/mL; in data set [6], 1.6 ± 0.4 µg/mL; in data set [7] it was 8.0 ± 1.2 µg/mL. Moreover, the “LD90 (Mean ± SD)” value came to 6.8 ± 0.9 µg/mL in data set [8], 18.6 ± 2.8 µg/mL in [1], 3.7 ± 0.2 µg/mL in [9] and 4.0 ± 0.7 µg/mL in data set [10]. The “Effect of NaCl on antibacterial activity” value in data set [11] (50 mM NaCl, all the tested strains, except for E. coli) is recorded as “not or slightly inhibited”; in [11] (200 mM NaCl versus 0 mM NaCl, P < 0.01), “greatly inhibited”. In data set [12] (200 mM NaCl), the “Number of isolates in which 50% or more activity was retained” value is on record as “two”. Moreover, the “Concentration from which cytotoxicity starts” value in [13] is “higher than 20 μg/ml”.

With “NTLQKYYCRVRGGRCAVLSCLPKEEQIGKCSTRGRKCCRRKK (cysteines drawn unpaired) [hBD-3Δ4]”, the “Effect of NaCl on antibacterial activity” value in data set [11] (100 mM NaCl, all the tested strains, except for S. aureus) is given as “almost the same antimicrobial activity as it would have in the absence of NaCl”. Moreover, the “Number of isolates in which 50% or more activity was retained” value turned out to be 14 isolates in data set [12] (200 mM NaCl), 8 isolates in data set [12] (250 mM NaCl) and 5 isolates in data set [12] (300 mM NaCl).
